Data from US9968579B2, “ATRA for modulating Pin1 activity and stability” (Beth Israel Deaconess Medical Center, Inc., priority 2014, dated 2018).
pKd: −log10 of the molar value.

Experiments:
Pin1 PPIase domain = biological target: T1, Pin1 PPIase domain (Homo sapiens, UniProt Q13526); assay: FP-HTS / FP assay, competition with pTide probe for Pin1 binding; conditions: for interaction with Pin1 in FP assay: 0.5 h or 24 h incubation with Pin1; for Pin1 binding among retinoids tested: FIG. 4F
T1 construct: Pin1 PPIase domain was used instead of its full-length protein
Source text: A FP-HTS screening for small molecule compounds that may compete with pTide for binding to dephosphorylated and thus activated Pin1 was developed. Pin1 PPIase domain was used instead of its full-length protein to ensure the identification of compounds that selectively target the catalytic site of monomeric Pin1. The HTS probe pTide was conjugated with FITC or TAMRA and assay conditions optimized to ensure that the probe only binds to the catalytic active site with certain essential residues, such as K63 and R69 (PDB: 2Q5A).
(§1) As observed in FIGS. 4B and 4C, 13cRA and its pairing compound ATRA include a carboxylic acid and a hydrophobic six-membered aromatic ring.
To examine whether the carboxylic acid in ATRA serves as an alternative of phosphate group that binds to Pin1, several structurally similar retinoids with substituted carboxylic or aromatic groups, as well as the new generation of retinoid drugs including Fenretinide and Bexarotene were tested for Pin1 binding.

NB4 cells = assay: Cell growth of NB4 cells; format: cell-based, human; conditions: combination with 1.5 μM ATRA; superior to high dose ATRA
Source text: (K) Potentiated effects of ATRA with SIRT1 inhibitors, NAM or Splito, on cell growth of NB4.
Next, in a consideration to test the role of activated Pin1 monomer in APL, the anti-proliferative effect of ATRA in the presence of the SIRT1 inhibitors, NAM or Splito, to deplete the monomeric Pin1 reservoir was examined.

AU565 cells = assay: ATRA sensitivity of AU565 cells in combination with SIRT1 inhibitors; format: cell-based, human; conditions: ATRA-resistant AU565 cells
Source text: Moreover, SIRT1 KD cells were more sensitive to growth inhibition, and Pin1 degradation induced by ATRA. These findings support the notion that ATRA selectively targets the activated Pin1 monomer.

[1] = tested on: APL cells isolated from hCG-PML-RARα transgenic mice
[2] = tested on: PML-RARα and Pin1 in NB4 cells; assay: PML-RARα and Pin1 protein levels in NB4 cells; format: cell-based, human
Pin1 acetylation = Pin1 acetylation in cells (Flag IP, acetyl-lysine immunoblot); format: cell-based
Source text: FIG. 1 depicts HTS results for glucose starvation induced Pin1 deacetylation in cells 100. In order to perform glucose starvation induced Pin1 deacetylation in cells, cells were transfected with Flag-Pin1 and subjected to various stresses, followed by Flag IP before with immunoblotting acetyl-lysine (AcK) or Flag antibody. Glu-, glucose starvation; HS, heat shock; UV, UV radiation. […] Overexpression of p300-HA increased Pin1 acetylation in cells. Various histone acetyl transferases were co-transfected with Flag-Pin1 into cells, followed by assaying acetylated Pin1. p300 inhibitors, Garcinol (Gar) and Anacardic acid (AnAc), reversed p300-increased Pin1 acetylation.
To corroborate this notion, 2-deoxyglucose (2-DG), a glucose analog, was used to mimic glucose starvation (Wick et al., 1955). […] Protein acetylation may be catalytically modulated by a particular pair of histone acetyl transferase (HAT) and deacetylase (HDAC) (Yang and Seto, 2007). To identify the HAT and HDAC that modulates Pin1 acetylation, Flag-tagged Pin1 was expressed with several HATs including p300, CBP or GCN5 in cells, followed by coimmunoprecipitation (Co-IP) with anti-Flag antibody and immunoblotting with anti-acetyl lysine antibody.

MDA-MB-231 cells = assay: MDA-MB-231 xenograft in nude mice; format: in vivo, female nude mice; conditions: intraperitoneally 3 times a week for 8 weeks
Experimental: (A, B) ATRA inhibited tumor growth of MDA-MB-231 cells in mice. Female nude mice were flank-inoculated with 2×10^6 MDA-MB-231 cells and, 1 week later, implanted with 5 or 10 mg 21 day slow-releasing ATRA pellets. Tumor sizes were measured weekly and tumor tissues were collected from the mice after 7 weeks (A). Curves of tumor volume were plotted after calculation with formula of L×W^2×0.52 (B) (n=3).
FIG. 7 illustrates study results 700 in which the slow-releasing ATRA inhibits human triple negative breast cancer tumor growth in mice. In the pilot experiments, female nude mice were subcutaneously injected with MDA-MB-231 cells into the flank, followed by administering ATRA or vehicle intraperitoneally 3 times a week for 8 weeks. […] This ATRA's modest anti-tumor activity could be due to its short half-life of less than 1 h in humans. Thus, slow-releasing ATRA pills to maintain its constant drug level in mice was used. Mice were again subcutaneously injected with MDA-MB-231 cells into the flank and implanted 1 week later with slow-releasing ATRA or placebo pills for 8 weeks. […] Tumor samples were then collected at the end and immunoblotted with antibodies against Pin1 and its target cyclin D1.

[3] = tested on: Pin1 and substrate oncogenes and tumor suppressors; assay: Protein levels of Pin1 and its substrates in breast cell lines; format: cell-based, human
Source text: (I, J) Either ATRA (I) or inducible Pin1 KD (J) shared the same ability to reduce protein levels of Pin1 and its substrate oncogenes including cyclin D1, HER2, ERα, Akt, NFkB/p65, c-Jun and PKM2 as well as to increase protein levels of Pin1 substrate tumor suppressors, Smad and SMRT, in breast cancer MDA-MB-231, SKBR3 and T47D cells, with ATRA having little effects on normal MCF10A cells. TNBC, triple negative breast cancer.
To further support that ATRA targets Pin1 in breast cancer, it was examined whether ATRA would affect protein levels of a selected set of oncogenes and tumor suppressors, whose protein stability is shown to be regulated by Pin1 in breast cancer. […] To further support that these effects of ATRA are due to Pin1 degradation, it was stably introduced tetracycline-inducible Pin1 KD into these cells. Inducible Pin1 KO produced the same effects on the oncogenes and tumor suppressors, as did ATRA (FIG. 6J). Taken together, ATRA selectively ablated activated Pin1 to inhibit many cancer-driving pathways simultaneously.

cyclin D1 promoter = assay: Cyclin D1 promoter activation by Pin1; format: cell-based; conditions: dose-dependent
Source text: FIG. 6 illustrates study results 600 in which ATRA may have anticancer activity in other cancer types. Breast cancer was used as model due to the substantial oncogenic role of Pin1 in vitro and in vivo. The first step was to test whether ATRA may reverse the oncogenic phenotypes induced by Pin1 overexpression, including induction of centrosome amplification, activation of the cyclin D1 promoter, and enhancement of foci formation.

[4] = tested on: MDA-MB-231 cells expressing Q33K or E100D Pin1 mutant; assay: Xenograft of MDA-MB-231 cells expressing Q33K or E100D Pin1 mutant; design: species or system nude mice; conditions: mouse, in vivo
Experimental: (H-J) ATRA inhibited tumor growth of MDA-MB-231 cells in mice, even after over-expression of monomeric Q33K or E100D Pin1 mutant. Nude mice were injected with 2×10^6 MDA-MB-231 cells and treated with ATRA pellets at indicated dosages. Tumors were harvested 7 weeks later. Quantitative curve of tumor volumes developed by Q33K (I) or E100D (J)-expressing MDA-MB-231 in the nude mice (n=3).
It was examined whether ATRA is suitable for treating tumors driven by cancer-derived monomeric Pin1 mutants given that it induces degradation of monomeric Pin1. It is stably expressed WT, Q33K or E100D Flag-Pin1 in MDA-MB-231 cells, and then treated them with ATRA. […] Collectively, ATRA has potent anti-tumor activity against breast cancer driven by WT Pin1 or its cancer-derived monomeric mutants via ablating Pin1.

breast cancer cells = assay: Effect of pan-RARs inhibitor/activator on ATRA-induced Pin1 degradation and growth inhibition; format: cell-based, human
Source text: To examine whether the inhibitory effects of ATRA on breast cancer cell growth were related to RAR activation, Ro-415253 and AC-93253 were used. […] Thus, ATRA-mediated growth inhibition is likely via Pin1 degradation in breast cancer cells, as in APL cells.

Pin1 [5] = biological target: T2, Pin1 (Homo sapiens, UniProt Q13526); assay: In vitro PPIase assay; conditions: dose-dependent
cells = conditions: cited from earlier work
Pin1 S71E mutant = Pin1 S71E mutant (Homo sapiens, UniProt Q13526, S71E); assay: Binding to phosphorylation-mimicking Pin1 S71E mutant
Source text: as §1
The levels of S71 phosphorylation in different cell lines were tightly correlated with ATRA's sensitivity. […] It has been previously shown that phosphorylation on S71 forms salt bridges with K63 and R69, which are the same two residues that coordinated for the binding to the carboxylic acid group of ATRA (FIG. 6H). Thus S71 phosphorylation by DAPK1 may regulate ATRA's sensitivity of cancer cells.

Pin1 [6] = biological target: T2, Pin1; conditions: read-out: Kd (affinity for Pin1); cited from earlier work

O=C(O)c1ccccc1O [salicylic acid]
interaction with Pin1 in FP assay (Pin1 PPIase domain): negative control

NC(=O)c1cccnc1 [NAM]
effect on anticancer effects of low dose ATRA (NB4 cells): greatly potentiated
increase of ATRA sensitivity (AU565 cells): 2 orders of magnitude

O=C(O[C@@H]1Cc2c(O)cc(O)cc2O[C@@H]1c1cc(O)c(O)c(O)c1)c1cc(O)c(O)c(O)c1 [EGCG]
PML-RARα in the bone marrow ([1]; after 20 days): dramatically reduced
condition of treated mice ([1]; mouse, in vivo): rather sick
potency in reducing PML-RARα and spleen size compared with ATRA ([1]; mouse, in vivo): less potent
spleen weights ([1]; versus enlarged spleens in placebo group): remained nearly at basal levels
PML-RARα degradation [2]: induced PML-RARα degradation in a dose-dependent manner
Pin1 degradation [2]: inhibited Pin1 without degrading it

CCCCCCCCCCCCCCCc1cccc(O)c1C(=O)O [Anacardic acid]
effect on p300-increased Pin1 acetylation (Pin1 acetylation; p300 over-expressed): reversed

CC1=C(/C=C/C(C)=C/C=C/C(C)=C/C(=O)O)C(C)(C)CCC1 [ATRA, all-trans-retinoic acid]
tumor size (MDA-MB-231 cells): slightly smaller tumors than control mice
protein levels of Pin1 and oncogenic substrates (cyclin D1, HER2, ERα, Akt, NFkB/p65, c-Jun, PKM2) ([3]; T47D, SKBR3 or MDA-MB-231): dose-dependent protein reduction
protein levels of tumor suppressor substrates Smad2/3 or SMRT ([3]; T47D, SKBR3 or MDA-MB-231): protein induction
changes in Pin1, oncogenes or tumor suppressors ([3]; normal MCF10A cells): no appreciable changes
inhibition of Pin1 activation of the cyclin D1 promoter (cyclin D1 promoter): fully inhibited
Pin1 mutants and cyclin D1 in tumors [4]: dose-dependently reduced both Q33K and E100D Pin1 mutants and cyclin D1 in tumors
inhibition of Q33K or E100D Pin1 mutant-promoted xenograft tumor growth [4]: dose-dependently and effectively inhibited
interaction with Pin1 in FP assay (Pin1 PPIase domain): interacted with Pin1 in a dose-dependent manner
Pin1 binding among retinoids tested (Pin1 PPIase domain): most potent
Pin1 binding potency, ATRA versus 13cRA (Pin1 PPIase domain; after 0.5 h Pin1 incubation): more potent than 13cRA
Pin1 binding potency, ATRA versus 13cRA (Pin1 PPIase domain; after 24 h Pin1 incubation): the same potency

CC(=O)OC/C=C(C)/C=C/C=C(C)/C=C/C1=C(C)CCCC1(C)C [retinyl acetate]
Pin1 binding among retinoids tested (Pin1 PPIase domain): completely inactive

CCCCCCCOc1cc2c(cc1/C(C)=C/c1ccc(C(=O)O)cc1)C(C)(C)CCS2(=O)=O [Ro-415253]
effect on Pin1 degradation or cell growth inhibition induced by ATRA (breast cancer cells): neither the pan-RARs inhibitor nor the pan-RARs activator had any obvious effects

CC1=C(/C=C/C(C)=C/C=C/C(C)=C/CO)C(C)(C)CCC1 [retinol]
Pin1 binding among retinoids tested (Pin1 PPIase domain): completely inactive

CC1=C(/C=C/C(C)=C/C=C/C(C)=C\C(=O)O)C(C)(C)CCC1 [13cRA, 13-cis-retinoic acid]
inhibition of Pin1 PPIase activity (Pin1 [5]): completely inhibited
interaction with Pin1 in FP assay (Pin1 PPIase domain): interacted with Pin1 in a dose-dependent manner
rank as Pin1 inhibitor hit by Z score in FP-HTS (Pin1 PPIase domain; 8200 compound chemical libraries): No. 1 hit

Bth-d-phos.Thr-Pip-Nal [pTide]
ability to enter cells (cells): cannot enter cells
binding to Pin1 S71E mutant (Pin1 S71E mutant): unable to bind
pKd (Pin1 [6]): 8.92

CCOC(=O)CN1C(=O)c2ccc3c4c(ccc(c24)C1=O)C(=O)N(CC(=O)OCC)C3=O [PiB]
PML-RARα degradation [2]: induced PML-RARα degradation in a dose-dependent manner
Pin1 degradation [2]: inhibited Pin1 without degrading it

O=C1CCc2c(ccc3ccccc23)O1 [Splito]
effect on anticancer effects of low dose ATRA (NB4 cells): greatly potentiated
effect on ATRA sensitivity (AU565 cells): increase ATRA sensitivity

CC1=C(/C=C/C(C)=C/C=C/C(C)=C/C(=O)Nc2ccc(O)cc2)C(C)(C)CCC1 [Fenretinide]
Pin1 binding among retinoids tested (Pin1 PPIase domain): only marginal Pin1 interaction

C=C(c1ccc(C(=O)O)cc1)c1cc2c(cc1C)C(C)(C)CCC2(C)C [Bexarotene]
Pin1 binding among retinoids tested (Pin1 PPIase domain): only marginal Pin1 interaction

O=CC[C@@H](O)[C@H](O)[C@H](O)CO [2-DG, 2-deoxyglucose]
Pin1 acetylation (Pin1 acetylation; mimic of glucose starvation): reduction in Pin1 acetylation in a time- or dose-dependent manner

CC1=C(/C=C/C(C)=C/C=C/C(C)=C/C=O)C(C)(C)CCC1 [retinal]
Pin1 binding among retinoids tested (Pin1 PPIase domain): completely inactive
